Tests used:
Assay in all cases: biochemical
Set-up in all cases: DiscoveRx KINOMEscan competition binding, percent of DMSO control signal at 100 nM
Conditions in all cases: read-out: Fig. 4a / Percent Control / Compound 1; percent of DMSO control, competition binding
[1] = molecular target: T1, ABL1(H396P)-nonphosphorylated (Homo sapiens, UniProt P00519, H396P)
T1 construct: nonphosphorylated

[2] = molecular target: BLK (Homo sapiens, UniProt P51451)
[3] = molecular target: T2, BRK (Homo sapiens, UniProt Q13882)
T2 construct: gene PTK6

[4] = molecular target: T3, CDC2L1 (Homo sapiens, UniProt P21127)
T3 construct: gene CDK11B

[5] = molecular target: DDR1 (Homo sapiens, UniProt Q08345)
[6] = molecular target: T4, DRAK1 (Homo sapiens, UniProt Q9UEE5)
T4 construct: gene STK17A

[7] = molecular target: EGFR(L858R) (Homo sapiens, UniProt P00533, L858R)
Chain of EGFR(L858R) (P00533 whole entry L858R): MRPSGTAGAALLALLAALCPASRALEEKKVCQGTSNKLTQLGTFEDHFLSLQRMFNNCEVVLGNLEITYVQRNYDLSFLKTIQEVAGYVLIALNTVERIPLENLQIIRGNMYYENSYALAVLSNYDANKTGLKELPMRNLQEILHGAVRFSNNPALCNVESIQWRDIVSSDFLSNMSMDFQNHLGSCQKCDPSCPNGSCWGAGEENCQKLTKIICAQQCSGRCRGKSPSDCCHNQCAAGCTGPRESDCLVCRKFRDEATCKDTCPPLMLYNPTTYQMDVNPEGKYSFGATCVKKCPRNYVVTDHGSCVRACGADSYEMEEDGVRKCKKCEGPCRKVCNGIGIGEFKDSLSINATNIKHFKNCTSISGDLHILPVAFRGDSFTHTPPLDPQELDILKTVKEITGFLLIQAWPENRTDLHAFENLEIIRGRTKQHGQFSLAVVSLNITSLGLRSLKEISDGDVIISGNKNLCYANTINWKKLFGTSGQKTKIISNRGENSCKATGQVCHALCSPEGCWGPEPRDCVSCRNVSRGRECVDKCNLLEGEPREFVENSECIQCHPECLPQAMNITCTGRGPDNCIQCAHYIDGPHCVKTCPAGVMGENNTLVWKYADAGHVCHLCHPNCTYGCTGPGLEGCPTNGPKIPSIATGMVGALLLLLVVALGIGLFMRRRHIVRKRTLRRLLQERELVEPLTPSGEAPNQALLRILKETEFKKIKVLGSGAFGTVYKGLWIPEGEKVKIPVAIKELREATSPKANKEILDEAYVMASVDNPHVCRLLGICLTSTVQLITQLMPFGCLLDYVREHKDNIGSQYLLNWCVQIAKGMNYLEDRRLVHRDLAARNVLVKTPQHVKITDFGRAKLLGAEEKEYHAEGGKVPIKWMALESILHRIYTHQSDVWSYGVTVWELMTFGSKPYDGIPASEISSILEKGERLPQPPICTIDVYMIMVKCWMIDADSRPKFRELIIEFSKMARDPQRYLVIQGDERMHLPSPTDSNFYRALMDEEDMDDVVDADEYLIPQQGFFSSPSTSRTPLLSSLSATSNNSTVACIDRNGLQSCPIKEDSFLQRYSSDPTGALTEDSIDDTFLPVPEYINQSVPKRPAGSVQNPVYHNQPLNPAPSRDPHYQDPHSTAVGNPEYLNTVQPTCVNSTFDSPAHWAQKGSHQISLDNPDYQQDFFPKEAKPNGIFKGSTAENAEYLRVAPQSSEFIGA

[8] = molecular target: EPHA1 (Homo sapiens, UniProt P21709)
Chain of EPHA1 (P21709 whole entry): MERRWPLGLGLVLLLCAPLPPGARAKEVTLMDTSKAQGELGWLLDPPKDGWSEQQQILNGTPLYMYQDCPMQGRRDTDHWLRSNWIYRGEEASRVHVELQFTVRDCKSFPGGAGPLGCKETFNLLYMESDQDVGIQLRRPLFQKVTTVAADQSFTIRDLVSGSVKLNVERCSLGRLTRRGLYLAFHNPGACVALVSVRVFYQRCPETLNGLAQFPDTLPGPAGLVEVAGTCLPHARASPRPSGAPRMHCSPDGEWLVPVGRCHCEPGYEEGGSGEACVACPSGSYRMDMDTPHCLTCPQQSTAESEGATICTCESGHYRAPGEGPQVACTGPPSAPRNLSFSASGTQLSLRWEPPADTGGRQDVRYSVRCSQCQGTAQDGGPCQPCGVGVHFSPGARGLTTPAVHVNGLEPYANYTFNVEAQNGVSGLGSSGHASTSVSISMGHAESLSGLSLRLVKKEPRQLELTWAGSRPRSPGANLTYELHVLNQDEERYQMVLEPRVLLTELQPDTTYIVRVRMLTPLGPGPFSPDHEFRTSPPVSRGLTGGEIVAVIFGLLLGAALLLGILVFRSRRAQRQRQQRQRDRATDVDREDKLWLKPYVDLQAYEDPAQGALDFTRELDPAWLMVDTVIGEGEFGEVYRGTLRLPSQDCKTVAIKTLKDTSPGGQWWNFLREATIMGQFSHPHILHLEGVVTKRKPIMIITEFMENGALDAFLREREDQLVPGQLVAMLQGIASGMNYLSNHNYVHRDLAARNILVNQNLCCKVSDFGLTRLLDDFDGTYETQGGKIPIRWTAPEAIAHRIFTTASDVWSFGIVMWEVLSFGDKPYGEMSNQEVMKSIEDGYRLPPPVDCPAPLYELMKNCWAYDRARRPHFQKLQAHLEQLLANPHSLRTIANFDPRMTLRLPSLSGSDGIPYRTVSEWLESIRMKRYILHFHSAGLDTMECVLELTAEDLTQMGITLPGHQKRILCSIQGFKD

[9] = molecular target: EPHB4 (Homo sapiens, UniProt P54760)
[10] = molecular target: FGFR1 (Homo sapiens, UniProt P11362)
[11] = molecular target: FLT3(ITD,F691L) (Homo sapiens, UniProt P36888, F691L/ITD)
[12] = molecular target: GRK3 (Homo sapiens, UniProt P35626)
[13] = molecular target: T5, HPK1 (Homo sapiens, UniProt Q92918)
T5 construct: gene MAP4K1

[14] = molecular target: IRAK1 (Homo sapiens, UniProt P51617)
Chain of IRAK1 (P51617 whole entry): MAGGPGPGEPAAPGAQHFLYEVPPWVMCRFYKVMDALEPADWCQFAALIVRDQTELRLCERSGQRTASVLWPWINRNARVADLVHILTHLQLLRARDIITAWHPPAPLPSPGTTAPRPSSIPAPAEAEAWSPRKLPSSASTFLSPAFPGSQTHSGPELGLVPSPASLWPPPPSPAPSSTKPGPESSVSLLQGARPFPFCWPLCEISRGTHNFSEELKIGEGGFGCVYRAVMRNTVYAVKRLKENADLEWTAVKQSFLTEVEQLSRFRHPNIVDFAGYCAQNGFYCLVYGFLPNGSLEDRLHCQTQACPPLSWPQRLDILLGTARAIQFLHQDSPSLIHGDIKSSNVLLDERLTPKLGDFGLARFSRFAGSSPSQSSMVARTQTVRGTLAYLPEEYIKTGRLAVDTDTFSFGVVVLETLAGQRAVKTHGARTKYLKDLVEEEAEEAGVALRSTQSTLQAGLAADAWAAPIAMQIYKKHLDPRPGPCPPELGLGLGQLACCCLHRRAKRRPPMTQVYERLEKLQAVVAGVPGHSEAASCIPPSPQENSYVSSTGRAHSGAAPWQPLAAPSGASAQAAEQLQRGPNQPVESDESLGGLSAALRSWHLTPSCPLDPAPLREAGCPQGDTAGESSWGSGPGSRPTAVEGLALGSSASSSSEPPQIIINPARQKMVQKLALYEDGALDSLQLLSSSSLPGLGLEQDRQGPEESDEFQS

[15] = molecular target: T6, JAK1(JH2domain-pseudokinase) (Homo sapiens, UniProt P23458)
T6 construct: JH2domain-pseudokinase

[16] = molecular target: T7, NDR1 (Homo sapiens, UniProt Q15208)
T7 construct: gene STK38

[17] = molecular target: NEK1 (Homo sapiens, UniProt Q96PY6)
Chain of NEK1 (Q96PY6 whole entry): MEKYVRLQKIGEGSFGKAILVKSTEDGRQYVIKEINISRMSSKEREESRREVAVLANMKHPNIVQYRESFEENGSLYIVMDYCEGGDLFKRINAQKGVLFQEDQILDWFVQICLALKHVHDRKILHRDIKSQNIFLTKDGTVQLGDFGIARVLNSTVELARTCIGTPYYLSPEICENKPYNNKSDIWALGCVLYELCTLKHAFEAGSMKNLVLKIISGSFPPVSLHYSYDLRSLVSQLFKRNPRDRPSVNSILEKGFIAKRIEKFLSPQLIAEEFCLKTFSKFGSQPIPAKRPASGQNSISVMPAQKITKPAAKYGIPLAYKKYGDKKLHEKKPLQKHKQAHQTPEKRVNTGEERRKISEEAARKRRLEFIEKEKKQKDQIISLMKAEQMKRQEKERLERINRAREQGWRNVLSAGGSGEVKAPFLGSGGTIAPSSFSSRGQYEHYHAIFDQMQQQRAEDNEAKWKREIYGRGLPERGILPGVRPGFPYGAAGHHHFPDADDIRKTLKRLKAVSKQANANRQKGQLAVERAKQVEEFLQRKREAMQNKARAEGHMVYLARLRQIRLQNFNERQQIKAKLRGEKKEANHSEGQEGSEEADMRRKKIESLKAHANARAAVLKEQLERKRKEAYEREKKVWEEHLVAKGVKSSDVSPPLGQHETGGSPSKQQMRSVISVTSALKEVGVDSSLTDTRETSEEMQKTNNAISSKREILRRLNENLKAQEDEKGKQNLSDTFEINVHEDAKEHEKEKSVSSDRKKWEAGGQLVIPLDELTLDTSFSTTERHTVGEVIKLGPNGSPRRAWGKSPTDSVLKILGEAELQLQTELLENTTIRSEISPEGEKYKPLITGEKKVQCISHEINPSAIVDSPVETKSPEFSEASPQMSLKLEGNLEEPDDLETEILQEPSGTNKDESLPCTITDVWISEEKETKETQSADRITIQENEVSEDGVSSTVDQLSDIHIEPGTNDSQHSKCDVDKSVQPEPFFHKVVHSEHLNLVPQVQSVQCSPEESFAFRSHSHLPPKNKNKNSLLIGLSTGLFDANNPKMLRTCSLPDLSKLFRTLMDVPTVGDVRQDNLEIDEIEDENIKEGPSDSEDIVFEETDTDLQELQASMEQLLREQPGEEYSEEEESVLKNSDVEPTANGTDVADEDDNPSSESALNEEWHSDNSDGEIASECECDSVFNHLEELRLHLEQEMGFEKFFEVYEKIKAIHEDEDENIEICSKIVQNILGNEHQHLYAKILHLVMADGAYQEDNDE

[18] = molecular target: RAF1 (Homo sapiens, UniProt P04049)
[19] = molecular target: T8, SGK (Homo sapiens, UniProt O00141)
T8 construct: gene SGK1

[20] = molecular target: SNRK (Homo sapiens, UniProt Q9NRH2)
[21] = molecular target: SRC (Homo sapiens, UniProt P12931)
[22] = molecular target: T9, TRKA (Homo sapiens, UniProt P04629)
T9 construct: gene NTRK1
T9 sequence (P04629 whole entry): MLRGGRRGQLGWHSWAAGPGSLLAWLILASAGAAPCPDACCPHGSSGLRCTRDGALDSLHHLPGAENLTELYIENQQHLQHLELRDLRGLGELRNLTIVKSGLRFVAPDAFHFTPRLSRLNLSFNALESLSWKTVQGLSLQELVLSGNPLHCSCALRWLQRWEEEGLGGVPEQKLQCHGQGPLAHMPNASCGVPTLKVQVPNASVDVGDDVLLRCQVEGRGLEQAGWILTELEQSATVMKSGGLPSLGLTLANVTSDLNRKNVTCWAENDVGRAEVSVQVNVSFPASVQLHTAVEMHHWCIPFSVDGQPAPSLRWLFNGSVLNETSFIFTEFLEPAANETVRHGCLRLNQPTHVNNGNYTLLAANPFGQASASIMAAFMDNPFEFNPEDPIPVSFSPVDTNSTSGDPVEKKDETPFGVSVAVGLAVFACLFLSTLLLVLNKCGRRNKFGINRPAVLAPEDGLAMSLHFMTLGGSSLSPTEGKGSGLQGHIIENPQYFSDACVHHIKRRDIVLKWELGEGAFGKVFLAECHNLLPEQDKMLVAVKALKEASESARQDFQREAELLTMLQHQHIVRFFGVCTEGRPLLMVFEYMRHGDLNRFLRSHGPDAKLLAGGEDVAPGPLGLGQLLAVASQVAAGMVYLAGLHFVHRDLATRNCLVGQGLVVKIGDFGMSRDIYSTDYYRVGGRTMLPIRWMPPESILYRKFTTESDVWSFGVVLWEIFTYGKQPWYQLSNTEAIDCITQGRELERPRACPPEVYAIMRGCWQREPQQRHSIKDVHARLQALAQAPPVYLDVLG

[23] = molecular target: TXK (Homo sapiens, UniProt P42681)
[24] = molecular target: T10, TYK2(JH1domain-catalytic) (Homo sapiens, UniProt P29597)
T10 construct: JH1domain-catalytic

[25] = molecular target: T11, YES (Homo sapiens, UniProt P07947)
T11 construct: gene YES1
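Also: KINOMEscan kinase panel binding assay, signal normalized between DMSO as 100% and a positive control compound as 0%.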

Compound: Cc1cnc2nc1Nc1cccc(c1)COCc1cc(ccc1OCCN1CCCC1)N2 [Compound 1]
- remaining binding at 0.1 µM [1]: 37%
- remaining binding at 0.1 µM [2]: 76%
- remaining binding at 0.1 µM [3]: 98%
- remaining binding at 0.1 µM [4]: 96%
- remaining binding at 0.1 µM [5]: 93%
- remaining binding at 0.1 µM [6]: 100%
- remaining binding at 0.1 µM [7]: 73%
- remaining binding at 0.1 µM [8]: 91%
- remaining binding at 0.1 µM [9]: 100%
- remaining binding at 0.1 µM [10]: 89%
- remaining binding at 0.1 µM [11]: 0%
- remaining binding at 0.1 µM [12]: 72%
- remaining binding at 0.1 µM [13]: 72%
- remaining binding at 0.1 µM [14]: 31%
- remaining binding at 0.1 µM [15]: 36%
- remaining binding at 0.1 µM [16]: 87%
- remaining binding at 0.1 µM [17]: 100%
- remaining binding at 0.1 µM [18]: 98%
- remaining binding at 0.1 µM [19]: 75%
- remaining binding at 0.1 µM [20]: 78%
- remaining binding at 0.1 µM [21]: 75%
- remaining binding at 0.1 µM [22]: 26%
- remaining binding at 0.1 µM [23]: 94%
- remaining binding at 0.1 µM [24]: 27%
- remaining binding at 0.1 µM [25]: 80%
